Test results as given in patent US8410178B2, “CIS 3,4-dihydroxy-2-(3-methylbutanoyl)-5-(3-methylbutyl)-4-(4-methylpentanoyl)cyclopent-2-en-1-derivatives, substantially enantiomerically pure compositions and methods” (KinDex Therapeutics, LLC, priority 2010, dated 2013).

Experiments:
THP-1 cells = assay: TNF-α- and LPS-mediated inflammatory factors in THP-1 cells; format: cell-based, human; details: TNF-α and LPS-induced, 50, 25, 12.5 and 3.125 μM
Experimental: The anti-inflammatory effect of (+)-KDT501 was evaluated in human monocytic THP-1 cells.
THP-1 cells (ATCC, Manassas, Va.) were maintained in RPMI1640 in the presence of 10% serum according to manufacturer's instructions. The cells were pre-incubated with (+)-KDT501 at varying concentrations (50, 25, 12.5 and 3.125 μM) for one hour, then stimulated with TNF-α(10 ng/ml; Sigma, St. Louis, Mo.) or E. coli LPS (1 μg/ml; Sigma, St. Louis, Mo.) overnight (16-20 hours). MMP-9 levels in the medium were measured using an ELISA kit (GE Healthcare, Piscataway, N.J.), and cytokines were assayed using a Milliplex MAP human cytokine/chemokine kit (Millipore, Billerica, Mass.). Analytes were quantified using a Luminex 100™ IS. Data were analyzed using a five-parameter logistic method.

PPARγ = biological target: T1, PPARγ (Homo sapiens, UniProt P37231); assay: PPARγ luciferase reporter assay; format: cell-based
T1 sequence (P37231 1-505): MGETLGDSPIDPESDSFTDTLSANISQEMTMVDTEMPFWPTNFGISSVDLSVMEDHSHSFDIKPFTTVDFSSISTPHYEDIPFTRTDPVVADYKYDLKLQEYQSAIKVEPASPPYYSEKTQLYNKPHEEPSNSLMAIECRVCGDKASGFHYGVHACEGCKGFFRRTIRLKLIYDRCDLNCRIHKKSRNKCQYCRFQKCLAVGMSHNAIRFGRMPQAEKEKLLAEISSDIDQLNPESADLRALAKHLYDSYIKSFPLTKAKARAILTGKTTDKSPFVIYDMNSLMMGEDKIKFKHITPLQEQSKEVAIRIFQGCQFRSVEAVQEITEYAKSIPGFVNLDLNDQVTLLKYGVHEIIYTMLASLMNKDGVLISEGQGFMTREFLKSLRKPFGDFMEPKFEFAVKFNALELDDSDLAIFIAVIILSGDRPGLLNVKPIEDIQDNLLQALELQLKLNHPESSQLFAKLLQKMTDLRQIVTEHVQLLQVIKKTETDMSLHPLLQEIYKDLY
Experimental: (§1) The functional effect of (+)-KDT501 on PPARα, PPARδ, and PPARγ activity was evaluated using a PPAR reporter assay (INDIGO Biosciences, PA). This assay utilizes non-human mammalian cells engineered to provide constitutive high level expression of PPARα, PPARδ, or PPARγ and containing a luciferase report gene specific to the appropriate PPAR. Following activation by agonist binding, PPAR induces expression of the luciferase reporter gene. Luciferase activity therefore provides a surrogate for measuring PPAR activity in agonist-treated cells.
(§2) Reporter cells were plated on a 96-well plate at 100 μL per well, and 100 μL of (+)-KDT501 at various final concentrations (25, 12.5, 6.25, 3.125, 1.56 and 0.78 μM) was added to each well. […] 0.1% DMSO was also used as a negative control for each assay. Plates are incubated for 20 hours in a humidified incubator at 37° C. and 5% CO2. After incubation, cell medium was discarded and the cells were treated with 100 μL of luciferase detection reagent for 15 minutes. Plates were analyzed using a luminometer (Victor2, Perkin Elmer). Average relative light unit (RLU) and standard deviation were analyzed using GraphPad Prism.
The PPAR activity assays were repeated as described above using both (+)-KDT501(12.5, 6.25, 3.125, 1.56, and 0.78 μM) and (−)-KDT501 (25, 12.5, 6.25, 3.125, 1.56, and 0.78 μM).

PPARα = biological target: T2, PPARα (Homo sapiens, UniProt Q07869); assay: PPARα luciferase reporter assay; format: cell-based; details: reporter cells, 20 hours
T2 sequence (Q07869 1-468): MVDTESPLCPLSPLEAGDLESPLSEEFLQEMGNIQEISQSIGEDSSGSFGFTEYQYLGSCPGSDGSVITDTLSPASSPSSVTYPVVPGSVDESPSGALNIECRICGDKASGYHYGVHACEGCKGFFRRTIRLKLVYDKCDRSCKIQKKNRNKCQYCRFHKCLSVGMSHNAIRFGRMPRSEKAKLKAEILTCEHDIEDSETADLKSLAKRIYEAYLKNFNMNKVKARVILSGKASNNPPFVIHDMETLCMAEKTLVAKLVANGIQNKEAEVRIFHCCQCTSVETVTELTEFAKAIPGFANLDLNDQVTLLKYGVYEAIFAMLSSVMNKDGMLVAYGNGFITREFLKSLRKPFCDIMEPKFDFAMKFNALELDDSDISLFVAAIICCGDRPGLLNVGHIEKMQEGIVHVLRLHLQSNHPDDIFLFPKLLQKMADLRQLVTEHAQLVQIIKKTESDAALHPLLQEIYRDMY
Experimental: as §1, §2

PPARδ = biological target: T3, PPARδ (Homo sapiens, UniProt Q03181); assay: PPARδ luciferase reporter assay; format: cell-based; details: reporter cells, 20 hours
T3 sequence (Q03181 1-441): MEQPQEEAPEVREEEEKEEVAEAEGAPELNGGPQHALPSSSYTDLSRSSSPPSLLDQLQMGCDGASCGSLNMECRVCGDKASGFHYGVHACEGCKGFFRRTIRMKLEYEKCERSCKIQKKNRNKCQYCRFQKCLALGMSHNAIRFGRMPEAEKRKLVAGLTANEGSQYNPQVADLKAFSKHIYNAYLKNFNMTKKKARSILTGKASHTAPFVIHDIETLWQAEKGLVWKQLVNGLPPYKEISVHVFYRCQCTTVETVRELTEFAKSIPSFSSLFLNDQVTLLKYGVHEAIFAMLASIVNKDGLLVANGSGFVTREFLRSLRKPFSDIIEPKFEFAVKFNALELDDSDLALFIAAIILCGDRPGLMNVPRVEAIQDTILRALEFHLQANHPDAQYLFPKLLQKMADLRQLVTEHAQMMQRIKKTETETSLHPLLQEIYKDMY
Experimental: as §1, §2

SMILES: CC(C)CCC(=O)[C@@]1(O)C(O)=C(C(=O)CC(C)C)C(=O)[C@@H]1CCC(C)C.[K] [(+)-KDT501, (+)-(4S,5R)-3,4-dihydroxy-2-(3-methylbutanoyl)-5-(3-methylbutyl)-4-(4-methylpentanoyl)cyclopent-2-en-1-one potassium salt]
- expression of IL-1β (THP-1 cells): inhibited
- expression of MCP-1 (THP-1 cells): inhibited
- expression of MIP-1α (THP-1 cells): inhibited
- expression of MMP-9 (THP-1 cells): inhibited
- expression of RANTES (THP-1 cells): inhibited
- Fold difference in PPARγ reporter activity (PPARγ; (+)-KDT501 versus (−)-KDT501 at 3.13 μM): 3.9
- Fold difference in PPARγ reporter activity (PPARγ; (+)-KDT501 versus (−)-KDT501 at 6.25 μM): 6.7
- Fold difference in PPARγ reporter activity (PPARγ; (+)-KDT501 versus (−)-KDT501 at 12.5 μM): 6.8
- Fold difference in PPARγ reporter activity (PPARγ; (+)-KDT501 versus (−)-KDT501 at 25 μM): 3.2
- PPARγ reporter activity (RLU) (PPARγ; concentration of test compound 3.13 μM): 2122 RLU
- PPARγ reporter activity (RLU) (PPARγ; concentration of test compound 6.25 μM): 6536 RLU
- PPARγ reporter activity (RLU) (PPARγ; concentration of test compound 12.5 μM): 16451 RLU
- PPARγ reporter activity (RLU) (PPARγ; concentration of test compound 25 μM): 13419 RLU
- PPARγ activity (PPARγ; reporter cells, 20 hours): increased PPARγ activity in a statistically significant manner
- PPARα activity (PPARα): little or no effect
- PPARδ activity (PPARδ): little or no effect
